Measurements taken from patent US10364238B2, “N-((het) arylmethyl)-heteroaryl-carboxamides compounds as plasma kallikrein inhibitors” (KALVISTA PHARMACEUTICALS LIMITED, priority 2014, dated 2019).
pIC50: −log10 of the molar value.

Tests used:
Assay type in all cases: biochemical
[1] = biological target: Human FXIa (Homo sapiens (Human), UniProt P03951); experiment: Determination of the % inhibition for FXIa; conditions: 40 μM test compound, 25° C., substrate Z-Gly-Pro-Arg-AFC
Experimental: Determination of the % Inhibition for FXIa
Human FXIa (Enzyme Research Laboratories) was incubated at 25° C. with the fluorogenic substrate Z-Gly-Pro-Arg-AFC and 40 μM of the test compound. Residual enzyme activity (initial rate of reaction) was determined by measuring the change in […].

[2] = biological target: Human plasma kallikrein (Homo sapiens (Human), UniProt P03952); experiment: Determination of the IC50 for plasma kallikrein; conditions: 25° C., fluorogenic substrate H-DPro-Phe-Arg-AFC; read-out: IC50 (human PKaI)
Sequence of Human plasma kallikrein (P03952 391-638): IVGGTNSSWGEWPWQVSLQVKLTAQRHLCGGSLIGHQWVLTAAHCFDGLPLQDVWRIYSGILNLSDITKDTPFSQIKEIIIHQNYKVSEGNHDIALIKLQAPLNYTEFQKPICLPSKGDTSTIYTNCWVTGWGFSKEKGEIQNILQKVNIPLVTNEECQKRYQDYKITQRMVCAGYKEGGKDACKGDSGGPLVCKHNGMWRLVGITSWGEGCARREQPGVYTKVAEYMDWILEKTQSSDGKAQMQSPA
Sequence of Human plasma kallikrein (P03952 20-390 partner): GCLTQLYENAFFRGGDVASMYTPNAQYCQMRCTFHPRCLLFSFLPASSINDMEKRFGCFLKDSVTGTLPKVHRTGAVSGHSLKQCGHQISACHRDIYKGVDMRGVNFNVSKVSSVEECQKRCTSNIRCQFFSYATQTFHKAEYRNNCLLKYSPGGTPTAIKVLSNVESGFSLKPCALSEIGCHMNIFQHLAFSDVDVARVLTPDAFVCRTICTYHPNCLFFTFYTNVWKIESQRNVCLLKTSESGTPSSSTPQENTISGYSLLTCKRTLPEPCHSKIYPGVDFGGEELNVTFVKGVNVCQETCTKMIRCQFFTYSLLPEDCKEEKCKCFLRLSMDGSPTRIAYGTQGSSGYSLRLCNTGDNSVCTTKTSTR
Experimental: Determination of the IC50 for Plasma Kallikrein
(§1) Human plasma kallikrein (Protogen) was incubated at 25° C. with the fluorogenic substrate H-DPro-Phe-Arg-AFC and various concentrations of the test compound. Residual enzyme activity (initial rate of reaction) was determined by measuring the change in […] at 410 nm and the IC50 value for the test compound was determined.

[3] = biological target: Human KLK1 (Homo sapiens (Human), UniProt P06870); experiment: Determination of the IC50 for KLK1; conditions: 25° C., fluorogenic substrate H-DVal-Leu-Arg-AFC
Sequence of Human KLK1 (P06870 25-262): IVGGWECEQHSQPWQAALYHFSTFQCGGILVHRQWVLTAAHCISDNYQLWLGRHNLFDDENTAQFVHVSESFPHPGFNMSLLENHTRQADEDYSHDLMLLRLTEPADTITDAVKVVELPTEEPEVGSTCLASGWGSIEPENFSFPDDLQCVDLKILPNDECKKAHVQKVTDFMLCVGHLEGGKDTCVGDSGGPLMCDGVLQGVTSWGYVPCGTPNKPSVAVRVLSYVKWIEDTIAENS
Experimental: Determination of the IC50 for KLK1
as §1, with “KLK1 (Callbiochem)” for “plasma kallikrein (Protogen)”, “H-DVal-Leu-Arg-AFC” for “H-DPro-Phe-Arg-AFC”

Sequence of Human FXIa (P03951 388-625): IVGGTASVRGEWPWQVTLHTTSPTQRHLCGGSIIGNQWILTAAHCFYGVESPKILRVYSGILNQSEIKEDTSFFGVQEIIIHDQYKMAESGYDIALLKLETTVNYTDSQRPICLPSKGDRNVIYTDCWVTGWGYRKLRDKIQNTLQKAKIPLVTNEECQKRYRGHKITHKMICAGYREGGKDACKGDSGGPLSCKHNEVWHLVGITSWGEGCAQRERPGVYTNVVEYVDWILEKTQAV
Sequence of Human FXIa (P03951 19-387 partner): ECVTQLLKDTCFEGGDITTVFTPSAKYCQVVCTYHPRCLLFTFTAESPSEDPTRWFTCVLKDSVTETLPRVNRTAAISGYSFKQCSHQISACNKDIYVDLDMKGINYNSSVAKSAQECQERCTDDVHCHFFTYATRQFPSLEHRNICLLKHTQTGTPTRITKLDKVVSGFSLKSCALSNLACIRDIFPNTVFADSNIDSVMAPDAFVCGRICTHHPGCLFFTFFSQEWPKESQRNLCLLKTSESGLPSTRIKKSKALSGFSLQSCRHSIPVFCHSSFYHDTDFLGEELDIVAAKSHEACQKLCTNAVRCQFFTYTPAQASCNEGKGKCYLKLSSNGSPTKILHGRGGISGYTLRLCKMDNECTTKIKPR

Row | pIC50 [2] | pIC50 [3] | % Inhibition @ 40 μM (human FXIa) [1] [%] | SMILES | inhibition at 40 µM [1] [%]
1 | 6.16 | < 5.00 | – | COCc1nn(Cc2ccc(Cn3ccccc3=O)cc2)cc1C(=O)NCc1cc(OC)cc(OC)c1 [Example 1, N-(3,5-Dimethoxybenzyl)-3-(methoxymethyl)-1-(4-((2-oxopyridin-1(2H)-yl)methyl)benzyl)-1H-pyrazole-4-carboxamide] | 0
2 | 5.59 | < 5.00 | – | COCc1nn(Cc2cnc3cc(Cl)ccc3c2)cc1C(=O)NCc1cccc(OC)c1F [Example 3, 1-(7-Chloro-quinolin-3-ylmethyl)-3-methoxymethyl-1H-pyrazole-4-carboxylic acid 2-fluoro-3-methoxy-benzylamide] | 3
3 | – | – | – | CCOc1cccc(CNC(=O)c2cn(Cc3ccc(Cn4cc(C)cn4)cc3)nc2C(F)(F)F)c1 [Example 6, N-[(3-ethoxyphenyl)methyl]-1-({4-[(4-methylpyrazol-1-yl)methyl]phenyl}methyl)-3-(trifluoromethyl)pyrazole-4-carboxamide] | 0
4 | – | – | – | COCc1nn(Cc2ccc(Cn3ccccc3=O)cc2)cc1C(=O)NCc1cnccc1C(F)(F)F [Example 37, 3-(methoxymethyl)-1-({4-[(2-oxopyridin-1-yl)methyl]phenyl}methyl)-N-{[4-(trifluoromethyl)pyridin-3-yl]methyl}pyrazole-4-carboxamide] | 0
5 | – | – | – | COCc1nn(Cc2ccc(Cn3ccccc3=O)cc2)cc1C(=O)NCc1ccc(C)nc1 [Example 39, 3-(methoxymethyl)-N-[(6-methylpyridin-3-yl)methyl]-1-({4-[(2-oxopyridin-1-yl)methyl]phenyl}methyl)pyrazole-4-carboxamide] | 0
6 | 6.84 | < 5.00 | – | COCc1nn(Cc2ccc(Cn3ccccc3=O)cc2)cc1C(=O)NCc1csc2ccc(Cl)cc12 [Example 45, N-[(5-chloro-1-benzothiophen-3-yl)methyl]-3-(methoxymethyl)-1-({4-[(2-oxopyridin-1-yl)methyl]phenyl}methyl)pyrazole-4-carboxamide] | –
7 | 5.62 | < 5.00 | – | COCc1nn(Cc2ccc(N3CCCC3)nc2)cc1C(=O)NCc1csc2ccc(Cl)cc12 [Example 46, N-[(5-chloro-1-benzothiophen-3-yl)methyl]-3-(methoxymethyl)-1-{[6-(pyrrolidin-1-yl)pyridin-3-yl]methyl}pyrazole-4-carboxamide] | –
8 | 6.12 | < 5.00 | – | COCc1nn(Cc2ccc(Cn3cc(C)cn3)cc2)cc1C(=O)NCc1csc2ccc(Cl)cc12 [Example 47, N-[(5-chloro-1-benzothiophen-3-yl)methyl]-3-(methoxymethyl)-1-({4-[(4-methylpyrazol-1-yl)methyl]phenyl}methyl)pyrazole-4-carboxamide] | –
9 | 6.19 | < 5.00 | – | NC(=O)c1ccccc1CNC(=O)c1cn(Cc2ccc(Cn3ccccc3=O)cc2)nc1C1CC1 [Example 48, N-[(2-carbamoylphenyl)methyl]-3-cyclopropyl-1-({4-[(2-oxopyridin-1-yl)methyl]phenyl}methyl)pyrazole-4-carboxamide] | 2
10 | 5.26 | < 5.00 | 0 | NC(=O)c1cccc(CNC(=O)c2cn(Cc3ccc(Cn4ccccc4=O)cc3)nc2C2CC2)c1 [Example 49, N-[(3-carbamoylphenyl)methyl]-3-cyclopropyl-1-({4-[(2-oxopyridin-1-yl)methyl]phenyl}methyl)pyrazole-4-carboxamide] | –
11 | 5.74 | < 5.00 | – | NC(=O)c1ccc(CNC(=O)c2cn(Cc3ccc(Cn4ccccc4=O)cc3)nc2C2CC2)cc1 [Example 50, N-[(4-carbamoylphenyl)methyl]-3-cyclopropyl-1-({4-[(2-oxopyridin-1-yl)methyl]phenyl}methyl)pyrazole-4-carboxamide] | –
12 | 8.68 | < 4.40 | – | COCc1nn(Cc2ccc(Cn3ccccc3=O)cc2)cc1C(=O)NCc1c(OC)ccc(OC)c1F [Example 54, N-[(2-fluoro-3,6-dimethoxyphenyl)methyl]-3-(methoxymethyl)-1-({4-[(2-oxopyridin-1-yl)methyl]phenyl}methyl)pyrazole-4-carboxamide] | 17
13 | 5.24 | < 5.00 | 0 | Nc1nn(Cc2ccc(Cn3ccccc3=O)cc2)cc1C(=O)NCc1ccc(OC(F)(F)F)cc1 [Example 58, 3-amino-1-({4-[(2-oxopyridin-1-yl)methyl]phenyl}methyl)-N-{[4-(trifluoromethoxy)phenyl]methyl}pyrazole-4-carboxamide] | –
14 | 7.69 | < 4.40 | – | COCc1nn(Cc2ccc(Cn3ccccc3=O)cc2)cc1C(=O)NCc1c(F)cccc1C(F)F [Example 80, N-{[2-(difluoromethyl)-6-fluorophenyl]methyl}-3-(methoxymethyl)-1-({4-[(2-oxopyridin-1-yl)methyl]phenyl}methyl)pyrazole-4-carboxamide] | –
15 | – | – | – | COCc1nn(Cc2ccc(Cn3ccccc3=O)cc2)cc1C(=O)NCc1c(F)ccc(OC)c1C(F)F [Example 83, N-{[2-(difluoromethyl)-6-fluoro-3-methoxyphenyl]methyl}-3-(methoxymethyl)-1-({4-[(2-oxopyridin-1-yl)methyl]phenyl}methyl)pyrazole-4-carboxamide] | 14
16 | 8.06 | < 4.40 | – | COCc1nn(Cc2ccc(Cn3ccccc3=O)cc2)cc1C(=O)NCc1cc(OC)ccc1C(N)=O [Example 86, N-[(2-carbamoyl-5-methoxyphenyl)methyl]-3-(methoxymethyl)-1-({4-[(2-oxopyridin-1-yl)methyl]phenyl}methyl)pyrazole-4-carboxamide] | –
17 | – | – | – | COCc1nn(Cc2ccc(Cn3ccccc3=O)cc2)cc1C(=O)NCc1c(Cl)ccc(OC)c1F [Example 99, N-[(6-chloro-2-fluoro-3-methoxyphenyl)methyl]-3-(methoxymethyl)-1-({4-[(2-oxopyridin-1-yl)methyl]phenyl}methyl)pyrazole-4-carboxamide] | 4
18 | 8.26 | < 5.00 | – | COCc1nn(Cc2ccc(Cn3cc(F)ccc3=O)cc2)cc1C(=O)NCc1c(F)ccc(OC)c1F [Example 108, N-[(2,6-difluoro-3-methoxyphenyl)methyl]-1-({4-[(5-fluoro-2-oxopyridin-1-yl)methyl]phenyl}methyl)-3-(methoxymethyl)pyrazole-4-carboxamide] | –

Row | SMILES | pIC50 [2] | pIC50 [3] | % Inhibition @ 40 μM (human FXIa) [1] [%] | inhibition at 40 µM [1] [%]
19 | COCc1nn(Cc2ccc(Cn3ccccc3=O)cc2)cc1C(=O)NCc1cnccc1C(F)(F)F [Example 31, 3-(methoxymethyl)-1-({4-[(2-oxopyridin-1-yl)methyl]phenyl}methyl)-N-{[4-(trifluoromethyl)pyridin-3-yl]methyl}pyrazole-4-carboxamide] | 6.41 | < 5.00 | – | –
20 | COCc1nn(Cc2ccc(Cn3ccccc3=O)cc2)cc1C(=O)NCc1ccc(C)nc1 [Example 32, 3-(methoxymethyl)-N-[(6-methylpyridin-3-yl)methyl]-1-({4-[(2-oxopyridin-1-yl)methyl]phenyl}methyl)pyrazole-4-carboxamide] | 5.10 | < 5.00 | – | –
21 | COCc1nn(Cc2ccc(Cn3ccccc3=O)cc2)cc1C(=O)NCc1cccnc1C(F)(F)F [Example 36, 3-(methoxymethyl)-1-({4-[(2-oxopyridin-1-yl)methyl]phenyl}methyl)-N-{[2-(trifluoromethyl)pyridin-3-yl]methyl}pyrazole-4-carboxamide] | 5.38 | < 5.00 | – | 0
22 | COCc1nn(Cc2ccc(Cn3ccccc3=O)cc2)cc1C(=O)NCc1cccc(OC)n1 [Example 40, 3-(methoxymethyl)-N-[(6-methoxypyridin-2-yl)methyl]-1-({4-[(2-oxopyridin-1-yl)methyl]phenyl}methyl)pyrazole-4-carboxamide] | 5.43 | < 5.00 | – | 1
23 | COCc1nn(Cc2ccc(Cn3ccccc3=O)cc2)cc1C(=O)NCc1nc(OC)ccc1F [Example 42, N-[(3-fluoro-6-methoxypyridin-2-yl)methyl]-3-(methoxymethyl)-1-({4-[(2-oxopyridin-1-yl)methyl]phenyl}methyl)pyrazole-4-carboxamide] | 6.08 | < 5.00 | – | 1
24 | COc1cccc(CNC(=O)c2cn(Cc3ccc(Cn4ccccc4=O)cc3)nc2C2CC2)c1F [Example 52, 3-cyclopropyl-N-[(2-fluoro-3-methoxyphenyl)methyl]-1-({4-[(2-oxopyridin-1-yl)methyl]phenyl}methyl)pyrazole-4-carboxamide] | 7.63 | < 4.40 | 1 | –
25 | COc1cccc(CNC(=O)c2cn(Cc3ccc(Cn4ccccc4=O)cc3)nc2N(C)C)c1F [Example 59, 3-(dimethylamino)-N-[(2-fluoro-3-methoxyphenyl)methyl]-1-({4-[(2-oxopyridin-1-yl)methyl]phenyl}methyl)pyrazole-4-carboxamide] | 7.13 | < 5.00 | – | 0
26 | COCc1nn(Cc2ccc(Cn3ccccc3=O)cc2)cc1C(=O)NCc1cccc(O)c1F [Example 129, N-[(2-fluoro-3-hydroxyphenyl)methyl]-3-(methoxymethyl)-1-({4-[(2-oxopyridin-1-yl)methyl]phenyl}methyl)pyrazole-4-carboxamide] | 6.36 | – | – | 0
